Article PMC3933693, “Novel Inhibitors of Mitochondrial sn-Glycerol 3-phosphate Dehydrogenase” (PLoS ONE, 2014)

Tests used:
[1] = test system: skeletal muscle mitochondria; test: Mitochondrial membrane potential (ΔΨm, TMRM) powered by glutamate plus malate; format: biochemical, rat; settings: for ΔΨm with Glu + Mal + Nig (% change at 80 μM) / ΔΨm with Glu + Mal (% change at 80 μM): 5 mM glutamate, 5 mM malate; for ΔΨm with Glu + Mal + Nig (% change at 80 μM): with nigericin; for ΔΨm with Glu + Mal (% change at 80 μM): without nigericin
[2] = molecular target: T1, outer ubiquinone-binding site of complex III (site IIIQo) (Rattus norvegicus, UniProt P00159+P20788); test: Site-specific H2O2 production from site IIIQo in skeletal muscle mitochondria; format: biochemical; settings: primary screen, ∼2.5 µM, average of duplicates; 5 mM succinate
T1 construct: from tissue; host or cells: skeletal muscle mitochondria
Method: (§1) Superoxide was measured as H2O2 after dismutation by endogenous or exogenous superoxide dismutase. Rates of total superoxide/H2O2 production were measured fluorimetrically using Amplex UltraRed in the presence of exogenous superoxide dismutase and horseradish peroxidase in a Varian Cary Eclipse fluorimeter as previously described. Rates of production from specific sites were determined as previously described using the following eight conditions: flavin mononucleotide site of complex I (site IF) plus matrix NAD-linked dehydrogenases (collectively "site IF/DH") with 5 mM glutamate, 5 mM malate, and 4 µM rotenone; ubiquinone-binding site of complex I (site IQ) with either 0.5 or 5 mM succinate; flavin site of complex II (site IIF) with either 15 µM palmitoylcarnitine, 2.5 µM antimycin A, and 2 µM myxothiazol or 0.5 mM succinate, 4 µM rotenone, 2.5 µM antimycin A, and 2 µM myxothiazol, [31]; mGPDH with 1.7 mM glycerol phosphate, 4 µM rotenone, 2.5 µM antimycin A, 2 µM myxothiazol, 1 mM malonate, and 250 nM free calcium; outer ubiquinone-binding site of complex III (site IIIQo) with either 0.5 or 5 mM succinate, 4 µM rotenone and 2.5 µM antimycin A [32]. Candidate small-molecule inhibitors were added prior to the start of measurements and H2O2 calibration curves were performed in the presence of tested compounds.
(§2) 3,200 compounds were tested initially at 2.5 µM (0.025% DMSO final) in duplicate on different plates against a panel of five distinct assays of site-specific superoxide/H2O2 production as described in the previous section with minor changes. […] Endpoint fluorescence was measured on a Perkin Elmer Victor V3 fluorescent plate reader. The fluorescence intensity of each well was normalized as % change from the average of eight DMSO controls on the same plate. Duplicate wells of each of four modulators of mitochondrial metabolism known to inhibit specific sites of superoxide/H2O2 production were included on each plate as positive controls and the resulting fluorescence levels set as −100% change from DMSO controls. Known inhibitors included 20 mM aspartate (for site IF/DH), 1 µM FCCP (for site IQ), 10 mM malonate (for site IIF), and 2 µM myxothiazol (for site IIIQo). The background fluorescence of the FCCP wells in the site IQ assay was used to normalize mGPDH plates run in parallel. To minimize position-dependent effects across each assay plate, Tukey’s two-way median polish was applied to fluorescence values after initial normalization, [36]. Tukey’s polish is an iterative subtraction of the median row and column values from each well’s given row or column. The procedure is repeated until sequential medians for each row and column are zero and positional gradients in fluorescence are eliminated.

[3] = molecular target: T2, mGPDH (Rattus norvegicus, UniProt P35571); test: Superoxide/H2O2 production by mGPDH in isolated skeletal muscle mitochondria (Amplex UltraRed); format: biochemical; settings: for IC50: Fig. 4 structure/activity microplate assay, 0.08–80 µM, estimated, means of two replicates, read-out: mGPDH H2O2 production IC50; for inhibition at 80 µM: read-out: mGPDH H2O2 production (% change at 80 μM)
T2 construct: Activity of mGPDH in frozen-thawed skeletal muscle mitochondria was measured; from tissue; host or cells: skeletal muscle mitochondria
T2 sequence (P35571 43-727): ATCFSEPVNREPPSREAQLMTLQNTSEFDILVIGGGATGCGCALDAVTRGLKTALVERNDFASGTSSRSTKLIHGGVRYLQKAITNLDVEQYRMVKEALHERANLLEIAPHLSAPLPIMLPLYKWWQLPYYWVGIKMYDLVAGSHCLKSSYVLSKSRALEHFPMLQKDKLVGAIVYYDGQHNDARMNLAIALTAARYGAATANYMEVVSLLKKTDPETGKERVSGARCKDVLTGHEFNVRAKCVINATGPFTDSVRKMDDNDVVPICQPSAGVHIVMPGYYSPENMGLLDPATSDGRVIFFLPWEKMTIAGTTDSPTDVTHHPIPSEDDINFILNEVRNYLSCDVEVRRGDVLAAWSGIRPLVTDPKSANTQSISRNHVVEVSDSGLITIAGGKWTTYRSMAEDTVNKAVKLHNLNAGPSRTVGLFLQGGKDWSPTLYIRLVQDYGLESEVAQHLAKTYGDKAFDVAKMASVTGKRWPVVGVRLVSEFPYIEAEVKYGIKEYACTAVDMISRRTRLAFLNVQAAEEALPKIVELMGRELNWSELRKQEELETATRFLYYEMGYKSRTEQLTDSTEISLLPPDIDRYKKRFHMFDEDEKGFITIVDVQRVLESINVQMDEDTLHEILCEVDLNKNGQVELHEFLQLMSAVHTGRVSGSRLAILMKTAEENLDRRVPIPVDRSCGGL

[4] = test system: ubiquinone-binding site of complex I (site IQ); test: Site-specific H2O2 production from site IQ in skeletal muscle mitochondria; format: biochemical, rat; settings: 5 mM succinate;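 note: H2O2 from superoxide detected by Amplex UltraRed fluorescence with added superoxide dismutase and horseradish peroxidase, endpoint read 30–40 min after substrate addition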
Method: Superoxide was measured as H2O2 after dismutation by endogenous or exogenous superoxide dismutase. Rates of total superoxide/H2O2 production were measured fluorimetrically using Amplex UltraRed in the presence of exogenous superoxide dismutase and horseradish peroxidase in a Varian Cary Eclipse fluorimeter as previously described [27]. Rates of production from specific sites were determined as previously described using the following eight conditions: flavin mononucleotide site of complex I (site IF) plus matrix NAD-linked dehydrogenases (collectively "site IF/DH") with 5 mM glutamate, 5 mM malate, and 4 µM rotenone [28]; ubiquinone-binding site of complex I (site IQ) with either 0.5 or 5 mM succinate [29]; flavin site of complex II (site IIF) with either 15 µM palmitoylcarnitine, 2.5 µM antimycin A, and 2 µM myxothiazol or 0.5 mM succinate, 4 µM rotenone, 2.5 µM antimycin A, and 2 µM myxothiazol [30], [31]; mGPDH with 1.7 mM glycerol phosphate, 4 µM rotenone, 2.5 µM antimycin A, 2 µM myxothiazol, 1 mM malonate, and 250 nM free calcium; outer ubiquinone-binding site of complex III (site IIIQo) with either 0.5 or 5 mM succinate, 4 µM rotenone and 2.5 µM antimycin A [32]. Candidate small-molecule inhibitors were added prior to the start of measurements and H2O2 calibration curves were performed in the presence of tested compounds.
3,200 compounds were tested initially at 2.5 µM (0.025% DMSO final) in duplicate on different plates against a panel of five distinct assays of site-specific superoxide/H2O2 production as described in the previous section with minor changes. […] Endpoint fluorescence was measured on a Perkin Elmer Victor V3 fluorescent plate reader. The fluorescence intensity of each well was normalized as % change from the average of eight DMSO controls on the same plate. Duplicate wells of each of four modulators of mitochondrial metabolism known to inhibit specific sites of superoxide/H2O2 production were included on each plate as positive controls and the resulting fluorescence levels set as −100% change from DMSO controls. Known inhibitors included 20 mM aspartate (for site IF/DH), 1 µM FCCP (for site IQ), 10 mM malonate (for site IIF), and 2 µM myxothiazol (for site IIIQo). The background fluorescence of the FCCP wells in the site IQ assay was used to normalize mGPDH plates run in parallel. To minimize position-dependent effects across each assay plate, Tukey’s two-way median polish was applied to fluorescence values after initial normalization [35], [36]. Tukey’s polish is an iterative subtraction of the median row and column values from each well’s given row or column. The procedure is repeated until sequential medians for each row and column are zero and positional gradients in fluorescence are eliminated.
These 20 compounds were tested in duplicate at 0.08–80 µM (0.1% DMSO final) in microplate format for effects on site-specific H2O2 production as described above. […] Plates were incubated in the dark at room temperature for 30–40 min (H2O2) or 10–15 min (ΔΨm) after the addition of substrate, and endpoint fluorescence was measured on the Victor plate reader. Endpoints were chosen for the H2O2 assays to provide good signal-to-noise ratios and linear rates of change without the indicator dye limiting the reaction.

[5] = test system: skeletal muscle mitochondria; test: Mitochondrial membrane potential (ΔΨm, TMRM) powered by glycerol phosphate; format: biochemical, rat; settings: 80 μM; 16.7 mM glycerol phosphate, 4 µM rotenone, nigericin
Method: Mitochondrial membrane potential (ΔΨm) was estimated fluorimetrically as described previously [33] on the Varian fluorimeter, except the potentiometric dye TMRM was used in quench-mode in place of safranine O [34]. […] The effect of putative small-molecule inhibitors was normalized as the % change in fluorescence between vehicle treatment and complete depolarization by the uncoupler carbonyl cyanide-4-(trifluoromethoxy)phenylhydrazone (FCCP, 2 µM) added at the end of each run. When indicated, the K^+/H^+ exchanger nigericin (80 ng ⋅ ml^−1) was added to collapse the pH gradient across the mitochondrial inner membrane (ΔpH) and maximize ΔΨm.
All assays were performed with stirring at 37°C.
Additionally, four microplate assays for ΔΨm were run in parallel to the H2O2 assays. These assays were as described under “Measurement of mitochondrial H2O2 production and membrane potential” except that each substrate condition was assayed in a separate microplate. […] Plates were incubated in the dark at room temperature for 30–40 min (H2O2) or 10–15 min (ΔΨm) after the addition of substrate, and endpoint fluorescence was measured on the Victor plate reader. […] Endpoints for the ΔΨm assays were determined in pilot experiments as the times for TMRM accumulation to reach a steady state. At room temperature, this was typically ∼ 5 min and remained stable for at least 30 min. Endpoint fluorescence values were normalized as described in the previous section with wells containing FCCP serving as positive controls for the ΔΨm assays.

[6] = test system: flavin mononucleotide site of complex I (site IF) plus matrix NAD-linked dehydrogenases (site IF/DH); test: Site-specific H2O2 production from site IF/DH in skeletal muscle mitochondria; format: biochemical, rat; settings: primary screen, ∼2.5 µM, average of duplicates
Method: as §1, §2

[7] = molecular target: T3, flavin site of complex II (site IIF) (Rattus norvegicus, UniProt Q920L2); test: Site-specific H2O2 production from site IIF in skeletal muscle mitochondria; format: biochemical; settings: primary screen, ∼2.5 µM, average of duplicates; palmitoylcarnitine
T3 construct: from tissue; host or cells: skeletal muscle mitochondria
T3 sequence (Q920L2 35-656): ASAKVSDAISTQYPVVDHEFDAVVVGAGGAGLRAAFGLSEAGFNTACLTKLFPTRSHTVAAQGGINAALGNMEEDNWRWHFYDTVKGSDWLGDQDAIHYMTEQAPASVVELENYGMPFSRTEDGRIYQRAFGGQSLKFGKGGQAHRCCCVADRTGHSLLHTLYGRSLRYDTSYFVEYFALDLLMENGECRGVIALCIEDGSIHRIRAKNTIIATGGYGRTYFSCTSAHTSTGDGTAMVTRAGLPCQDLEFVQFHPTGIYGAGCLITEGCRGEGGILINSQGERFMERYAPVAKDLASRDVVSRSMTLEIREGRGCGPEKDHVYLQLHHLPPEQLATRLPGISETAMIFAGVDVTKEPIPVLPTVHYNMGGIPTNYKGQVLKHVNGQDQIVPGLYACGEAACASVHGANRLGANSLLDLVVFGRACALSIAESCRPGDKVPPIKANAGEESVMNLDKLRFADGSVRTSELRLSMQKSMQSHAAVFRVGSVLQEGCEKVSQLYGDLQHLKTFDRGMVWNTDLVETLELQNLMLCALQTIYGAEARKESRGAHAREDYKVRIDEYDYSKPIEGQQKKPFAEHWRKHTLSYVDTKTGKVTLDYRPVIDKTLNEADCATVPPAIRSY
T3 sequence (P21913 31-282 partner): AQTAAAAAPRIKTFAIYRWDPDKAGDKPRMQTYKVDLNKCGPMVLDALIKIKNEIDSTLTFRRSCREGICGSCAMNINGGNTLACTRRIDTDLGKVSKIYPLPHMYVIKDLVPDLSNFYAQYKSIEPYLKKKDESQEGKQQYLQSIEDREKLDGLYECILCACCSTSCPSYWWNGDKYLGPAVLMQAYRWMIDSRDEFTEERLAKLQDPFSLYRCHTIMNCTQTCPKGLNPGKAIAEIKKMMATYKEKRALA
T3 sequence (Q641Z9 30-169 partner limits assumed): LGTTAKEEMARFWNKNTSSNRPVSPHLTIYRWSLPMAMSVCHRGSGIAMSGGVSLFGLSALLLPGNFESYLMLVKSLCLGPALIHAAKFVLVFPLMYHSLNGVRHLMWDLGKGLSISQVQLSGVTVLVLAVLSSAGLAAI
T3 sequence (Q6PCT8 57-159 partner): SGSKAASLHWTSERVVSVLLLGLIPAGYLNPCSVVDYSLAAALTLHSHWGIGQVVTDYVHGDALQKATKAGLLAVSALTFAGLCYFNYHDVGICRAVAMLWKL
Method: as §1, §2

| SMILES | ΔΨm with Glu + Mal + Nig (% change at 80 μM) [1] | ΔΨm with Glu + Mal (% change at 80 μM) [1] | ΔΨm (% change from DMSO) ([1]; primary screen, ∼2.5 µM, average of duplicates, glutamate and malate) | IIIQo (% change from DMSO) [2] | IC50 [3] | mGPDH (% change from DMSO) ([3]; primary screen, ∼2.5 µM, average of duplicates, 16.7 mM glycerol phosphate, no added calcium) | inhibition at 80 µM [3] | IQ H2O2 production with 5 mM Suc (% change at 80 μM) [4] | IQ (% change from DMSO) ([4]; primary screen, ∼2.5 µM, average of duplicates) | ΔΨm with GP + Nig (% change at 80 μM) [5] | IF/DH (% change from DMSO) [6] | IIF (% change from DMSO) [7] | lowering of potency versus mGPDH ROS production relative to iGP-1 ([3]; ortho- to para- positioning) |
| --- | --- | --- | --- | --- | --- | --- | --- | --- | --- | --- | --- | --- | --- |
| O=C(O)CCC(=O)Nc1ccc(-c2nc3ccccc3o2)cc1 [iGP-2] | 18% | 107% | 0.8% | 2.5% | 20 µM | -12.2% | 50% | -57% | 0.759% | 1% | -2.6% | 2.1% |  |
| O=C(O)CCC(=O)Nc1cccc(-c2nc3ccccc3[nH]2)c1 [iGP-8] | 1% | 3% |  |  | 50 µM |  | 44% | -14% |  | -7% |  |  | more than 5 fold |
| CCCC(=O)Nc1ccc(-c2nc3cc4ccccc4cc3[nH]2)cc1 [iGP-9] | 5% | 26% |  |  |  |  | 2% | -1% |  | 5% |  |  |  |
| c1ccc2[nH]c(-c3ccc(-c4nc5ccccc5[nH]4)cc3)nc2c1 [iGP-10] | -78% | -58% |  |  |  |  | 0% | -77% |  | -78% |  |  |  |
| C=C(C)C(=O)Nc1ccc(-c2nc3ccccc3[nH]2)cc1 [iGP-11] | -1% | 54% |  |  |  |  | 5% | -54% |  | 1% |  |  |  |
| CC(=O)Nc1ccc(-c2nc3ccccc3[nH]2)cc1 [iGP-12] | 2% | 10% |  |  |  |  | 28% | -21% |  | 2% |  |  |  |
| O=C(Nc1ccc(-c2nc3ccccc3[nH]2)cc1)c1ccco1 [iGP-13] | 10% | 23% |  |  | 80 µM |  | 37% | -82% |  | 13% |  |  |  |
| CCOc1ccc(C(=O)Nc2ccc(-c3nc4ccccc4[nH]3)cc2)cc1 [iGP-15] | -42% | 10% |  |  |  |  | -11% | -15% |  | -25% |  |  |  |
| O=C(Nc1ccc(-c2nc3ccccc3[nH]2)cc1)C1CC1 [iGP-16] | 1% | 4% |  |  |  |  | 7% | -24% |  | 2% |  |  |  |
| CCCCCCNC(=O)CCC(=O)O [iGP-17] | -1% | -1% |  |  |  |  | -6% | -1% |  | 0% |  |  |  |
| O=C(O)CCC(=O)Nc1ccc(Cl)cc1 [iGP-18] | -3% | -9% |  |  |  |  | -2% | 6% |  | -1% |  |  |  |
| Cc1ccc(NC(=O)CCC(=O)O)cc1 [iGP-19] | -2% | -8% |  |  |  |  | 1% | 7% |  | -2% |  |  |  |
| COC(=O)CCC(=O)Nc1ccc(C)cc1 [iGP-20] | -1% | -3% |  |  |  |  | 20% | -8% |  | 0% |  |  |  |
